Tests used:
EGFR = target: T1, EGFR (Homo sapiens, UniProt P00533); assay: EGFR ELISA assay (in vitro kinase activity, EGFR captured from A431 cell lysate); format: biochemical; parameters: concentration or dose not given beside the values
T1 construct: Add 7 ug A431 cell lysate per well (EGFR source); endogenous in cells; host or cells: A431
Method in brief: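 EGFR from A431 lysate was captured on anti-EGFR antibody-coated plates and preincubated with compounds for 30 min. Autophosphorylation ran 5 min with 3 uM ATP and 5 mM MnCl2 (final), stopped with 20 mM EDTA. Phosphotyrosine was detected by anti-pTyr ELISA with ABTS/H2O2, read at 410 nm.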

PDGF-R = PDGF-R (Homo sapiens, UniProt P09619); assay: PDGF-R ELISA; format: cell-based
Excerpt: A PDGF-R ELISA is described in International Patent Publication No. WO 96/40116, published December 19, 1996 by Tang et al.

T1 sequence (P00533 25-1210): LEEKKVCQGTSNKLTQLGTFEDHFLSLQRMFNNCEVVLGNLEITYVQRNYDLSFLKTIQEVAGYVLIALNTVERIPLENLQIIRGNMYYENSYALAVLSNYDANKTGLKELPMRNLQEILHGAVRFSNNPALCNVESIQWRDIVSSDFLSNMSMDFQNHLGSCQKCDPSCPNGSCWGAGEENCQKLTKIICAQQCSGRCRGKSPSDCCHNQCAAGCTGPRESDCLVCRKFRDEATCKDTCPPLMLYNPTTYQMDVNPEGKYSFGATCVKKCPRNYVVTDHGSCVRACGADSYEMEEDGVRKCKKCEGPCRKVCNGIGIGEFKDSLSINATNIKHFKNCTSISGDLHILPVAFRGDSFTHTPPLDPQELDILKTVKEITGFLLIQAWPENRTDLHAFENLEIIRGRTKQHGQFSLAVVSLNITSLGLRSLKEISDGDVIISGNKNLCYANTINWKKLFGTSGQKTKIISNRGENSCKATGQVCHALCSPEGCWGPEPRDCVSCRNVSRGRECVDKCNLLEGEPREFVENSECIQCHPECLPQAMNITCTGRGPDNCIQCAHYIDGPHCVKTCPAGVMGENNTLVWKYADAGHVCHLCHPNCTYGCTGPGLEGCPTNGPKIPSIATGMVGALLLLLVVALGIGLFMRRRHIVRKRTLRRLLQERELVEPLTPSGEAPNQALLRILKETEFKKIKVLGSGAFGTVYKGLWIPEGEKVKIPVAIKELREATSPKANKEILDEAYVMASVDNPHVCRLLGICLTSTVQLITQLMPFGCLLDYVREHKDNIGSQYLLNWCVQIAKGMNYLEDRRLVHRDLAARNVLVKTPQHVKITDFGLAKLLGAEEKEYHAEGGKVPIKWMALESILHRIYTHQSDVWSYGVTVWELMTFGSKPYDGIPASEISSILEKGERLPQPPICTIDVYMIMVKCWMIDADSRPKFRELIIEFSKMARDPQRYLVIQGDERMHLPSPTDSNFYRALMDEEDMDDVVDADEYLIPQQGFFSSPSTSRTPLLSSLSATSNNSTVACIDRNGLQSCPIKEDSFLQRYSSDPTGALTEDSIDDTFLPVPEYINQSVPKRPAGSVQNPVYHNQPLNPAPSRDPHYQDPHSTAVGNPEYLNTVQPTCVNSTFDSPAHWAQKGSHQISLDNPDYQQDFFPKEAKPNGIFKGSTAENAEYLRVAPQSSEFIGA
Chain of PDGF-R (P09619 33-1106, species assumed): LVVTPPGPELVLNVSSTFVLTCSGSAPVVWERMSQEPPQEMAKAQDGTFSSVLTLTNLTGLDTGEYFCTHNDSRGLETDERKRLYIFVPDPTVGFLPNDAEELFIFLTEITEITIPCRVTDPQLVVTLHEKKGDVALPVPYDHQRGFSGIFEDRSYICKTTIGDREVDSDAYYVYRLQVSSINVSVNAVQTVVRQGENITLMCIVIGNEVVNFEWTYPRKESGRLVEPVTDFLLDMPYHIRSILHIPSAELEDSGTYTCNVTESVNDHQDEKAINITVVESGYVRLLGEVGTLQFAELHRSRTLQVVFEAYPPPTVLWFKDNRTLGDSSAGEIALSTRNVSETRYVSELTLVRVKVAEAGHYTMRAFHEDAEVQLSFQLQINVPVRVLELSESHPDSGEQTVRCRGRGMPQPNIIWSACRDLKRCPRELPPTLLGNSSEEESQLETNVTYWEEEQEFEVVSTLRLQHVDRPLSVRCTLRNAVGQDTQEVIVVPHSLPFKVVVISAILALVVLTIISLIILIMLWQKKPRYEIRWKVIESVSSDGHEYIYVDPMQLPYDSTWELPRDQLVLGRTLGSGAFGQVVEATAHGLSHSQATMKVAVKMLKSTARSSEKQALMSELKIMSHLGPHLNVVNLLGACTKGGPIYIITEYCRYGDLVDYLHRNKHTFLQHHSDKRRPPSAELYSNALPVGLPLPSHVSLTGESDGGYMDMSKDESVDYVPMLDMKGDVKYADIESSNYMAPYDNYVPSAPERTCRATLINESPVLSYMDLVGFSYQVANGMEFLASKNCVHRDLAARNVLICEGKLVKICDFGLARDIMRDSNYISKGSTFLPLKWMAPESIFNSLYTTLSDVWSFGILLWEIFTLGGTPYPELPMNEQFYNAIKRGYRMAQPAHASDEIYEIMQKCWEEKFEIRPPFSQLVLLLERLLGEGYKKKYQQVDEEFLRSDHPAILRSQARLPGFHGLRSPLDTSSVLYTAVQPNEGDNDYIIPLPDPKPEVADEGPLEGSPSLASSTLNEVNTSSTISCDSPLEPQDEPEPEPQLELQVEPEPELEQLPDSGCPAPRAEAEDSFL

## CNS(=O)(=O)c1ccc2c(c1)C(=Cc1c(OC)ccc3ccccc13)C(=O)N2 [10729/D02]
EGFR
  Biochem EGFR %Inhibition: -5.7%
PDGF-R
  PDGF Kinase %Inhibition: 15.6%

## CNS(=O)(=O)c1ccc2c(c1)C(=Cc1ccc(OC)c3ccccc13)C(=O)N2 [10729/D03]
EGFR
  Biochem EGFR %Inhibition: 15.5%
PDGF-R
  PDGF Kinase %Inhibition: 14.1%

## CNS(=O)(=O)c1ccc2c(c1)C(=Cc1ccc(SC)cc1)C(=O)N2 [10729/D04]
EGFR
  Biochem EGFR %Inhibition: 18.8%
PDGF-R
  PDGF Kinase %Inhibition: -12.8%

## CNS(=O)(=O)c1ccc2c(c1)C(=Cc1sccc1C)C(=O)N2 [10729/D05]
EGFR
  Biochem EGFR %Inhibition: 22.1%
PDGF-R
  PDGF Kinase %Inhibition: 2.3%

## CNS(=O)(=O)c1ccc2c(c1)C(=Cc1cccc(Oc3ccccc3)c1)C(=O)N2 [10729/D06]
EGFR
  Biochem EGFR %Inhibition: 45.7%
PDGF-R
  PDGF Kinase %Inhibition: 2.7%

## CNS(=O)(=O)c1ccc2c(c1)C(=Cc1ccccn1)C(=O)N2 [10729/D07]
EGFR
  Biochem EGFR %Inhibition: 21.4%
PDGF-R
  PDGF Kinase %Inhibition: -20.0%

## CNS(=O)(=O)c1ccc2c(c1)C(=Cc1cccnc1)C(=O)N2 [10729/D08]
EGFR
  Biochem EGFR %Inhibition: 10.3%
PDGF-R
  PDGF Kinase %Inhibition: -21.1%

## CNS(=O)(=O)c1ccc2c(c1)C(=Cc1ccncc1)C(=O)N2 [10729/D09]
EGFR
  Biochem EGFR %Inhibition: 22.1%
PDGF-R
  PDGF Kinase %Inhibition: -12.1%

## CNS(=O)(=O)c1ccc2c(c1)C(=Cc1ccc(N3CCCC3)cc1)C(=O)N2 [10729/D10]
EGFR
  Biochem EGFR %Inhibition: 11.3%
PDGF-R
  PDGF Kinase %Inhibition: -11.3%

## CNS(=O)(=O)c1ccc2c(c1)C(=CC1C=CCCC1)C(=O)N2 (centres unmarked) [10729/D11]
EGFR
  Biochem EGFR %Inhibition: 19.2%
PDGF-R
  PDGF Kinase %Inhibition: 0.1%

## COc1ccc2ccccc2c1C=C1C(=O)Nc2ccc(S(=O)(=O)Nc3ccc(C(F)(F)F)cc3)cc21 [10729/E02]
EGFR
  Biochem EGFR %Inhibition: 8.0%
PDGF-R
  PDGF Kinase %Inhibition: 28.4%

## COc1ccc(C=C2C(=O)Nc3ccc(S(=O)(=O)Nc4ccc(C(F)(F)F)cc4)cc32)c2ccccc12 [10729/E03]
EGFR
  Biochem EGFR %Inhibition: 20.1%
PDGF-R
  PDGF Kinase %Inhibition: 29.2%

## CSc1ccc(C=C2C(=O)Nc3ccc(S(=O)(=O)Nc4ccc(C(F)(F)F)cc4)cc32)cc1 [10729/E04]
EGFR
  Biochem EGFR %Inhibition: 19.5%
PDGF-R
  PDGF Kinase %Inhibition: 26.5%

## Cc1ccsc1C=C1C(=O)Nc2ccc(S(=O)(=O)Nc3ccc(C(F)(F)F)cc3)cc21 [10729/E05]
EGFR
  Biochem EGFR %Inhibition: 12.6%
PDGF-R
  PDGF Kinase %Inhibition: 29.9%

## O=C1Nc2ccc(S(=O)(=O)Nc3ccc(C(F)(F)F)cc3)cc2C1=Cc1cccc(Oc2ccccc2)c1 [10729/E06]
EGFR
  Biochem EGFR %Inhibition: 43.7%
PDGF-R
  PDGF Kinase %Inhibition: 24.7%

## O=C1Nc2ccc(S(=O)(=O)Nc3ccc(C(F)(F)F)cc3)cc2C1=Cc1ccccn1 [10729/E07]
EGFR
  Biochem EGFR %Inhibition: 26.7%
PDGF-R
  PDGF Kinase %Inhibition: 29.6%

From EP1247803A2, “Indolinone compounds suitable for modulation of protein kinases” (Sugen, Inc., priority 1996, dated 1998)
